How the values were obtained:
Test in all cases: DTP Human Tumor Cell Line Screen, sulforhodamine B assay
Assay type in all cases: cell-based
K-562 = conditions: 48 h
Experimental: (§1) The growth inhibitory activity of propargylic sulfone 3.2 against a wide range of human cancer cell lines was determined calorimetrically with sulforhodamine B assay conducted by the National Cancer Institute of the National Institutes of Health.
(§2) The in vitro cytotoxicity of compounds 2.47, 2.48 and 3.2 were investigated using the DTP Human Tumor Cell Line Screen. The concept, rationale and history of development of the DTP Human Tumor Cell Line Screen were described by Boyd (1993;1997)^8.4, 8.6 and Boyd and Paull (1995)^8.5. Further technical details of the NCI screening procedures were described (Monks, et. al.)^8.2 as were the origins and processing of the cell lines (Alley, et. al., Shoemaker, et. al., Stinson, et. al.). Briefly, cell suspensions that were diluted according to the particular cell type and the expected target cell density (5000-40,000 cells per well based on cell growth characteristics) were added by pipet (100 μL) into 96-well microtiter plates. Inoculates were allowed a preincubation period of 24 h at 37° C. for stabilization. Dilutions at twice the intended test concentration were added at time zero in 100-μL aliquots to the microtiter plate wells. Usually, test compounds were evaluated at five 10-fold dilutions. In routine testing, the highest well concentration is 10E-4 M, but for the standard agents the highest well concentration used depended on the agent. Incubations lasted for 48 h in 5% CO2 atmosphere and 100% humidity. The cells were assayed by using the sulforhodamine B assay (Rubinstein, et. al., Skehan, et. al.). A plate reader was used to read the optical densities, and a microcomputer processed the optical densities into the special concentration parameters.

DU-145 = conditions: Prostate Cancer, 48 h
Experimental: as §1, §2

HOP-62 = conditions: Non-Small Cell Lung Cancer, 48 h
Experimental: as §1, §2

EKVX = conditions: Non-Small Cell Lung Cancer, 48 h
Experimental: as §1, §2

SR = conditions: Leukemia, 48 h
Experimental: as §1, §2

SF-295 = conditions: CNS Cancer, 48 h
Experimental: as §1, §2

KM12 = conditions: Colon Cancer, 48 h
Experimental: as §1, §2

HL-60 (TB) = conditions: Leukemia, 48 h
Experimental: as §1, §2

TK-10 = conditions: Renal Cancer, 48 h
Experimental: as §1, §2

MCF7 = conditions: Breast Cancer, 48 h
Experimental: as §1, §2

MALME-3M = conditions: Melanoma, 48 h
Experimental: as §1, §2

OVCAR-8 = conditions: Ovarian Cancer, 48 h
Experimental: as §1, §2

HCT-15 = conditions: Colon Cancer, 48 h
Experimental: as §1, §2

SNB-75 = conditions: CNS Cancer, 48 h
Experimental: as §1, §2

MDA-MB-231/ATCC = conditions: Breast Cancer, 48 h
Experimental: as §1, §2

ACHN = conditions: Renal Cancer, 48 h
Experimental: as §1, §2

BT-549 = conditions: Breast Cancer, 48 h
Experimental: as §1, §2

RXF 393 = conditions: Renal Cancer, 48 h
Experimental: as §1, §2

UACC-62 = conditions: Melanoma, 48 h
Experimental: as §1, §2

NCI-H460 = conditions: Non-Small Cell Lung Cancer, 48 h
Experimental: as §1, §2

IGROV1 = conditions: 48 h
Experimental: as §1, §2

SK-OV-3 = conditions: Ovarian Cancer, 48 h
Experimental: as §1, §2

NCI-H226 = conditions: Non-Small Cell Lung Cancer, 48 h
Experimental: as §1, §2

HCT-116 = conditions: Colon Cancer, 48 h
Experimental: as §1, §2

SK-MEL-5 = conditions: Melanoma, 48 h
Experimental: as §1, §2

SN12C = conditions: Renal Cancer, 48 h
Experimental: as §1, §2

HOP-92 = conditions: Non-Small Cell Lung Cancer, 48 h
Experimental: as §1, §2

UACC-257 = conditions: Melanoma, 48 h
Experimental: as §1, §2

MCF7/ADR-RES = conditions: Breast Cancer, 48 h
Experimental: as §1, §2

U251 = conditions: 48 h
Experimental: as §1, §2

786-0 = conditions: Renal Cancer, 48 h
Experimental: as §1, §2

OVCAR-5 = conditions: Ovarian Cancer, 48 h
Experimental: as §1, §2

MOLT-4 = conditions: Leukemia, 48 h
Experimental: as §1, §2

MDA-MB-435 = conditions: Breast Cancer, 48 h
Experimental: as §1, §2

LOX IMVI = conditions: Melanoma, 48 h
Experimental: as §1, §2

HCC-2998 = conditions: Colon Cancer, 48 h
Experimental: as §1, §2

CAKI-1 = conditions: Renal Cancer, 48 h
Experimental: as §1, §2

SNB-19 = conditions: CNS Cancer, 48 h
Experimental: as §1, §2

HS 578T = conditions: Breast Cancer, 48 h
Experimental: as §1, §2

HT29 = conditions: 48 h
Experimental: as §1, §2

PC-3 = conditions: Prostate Cancer, 48 h
Experimental: as §1, §2

O=S1(=O)CC#CCOCCOCCOCCOCCOCCOCC#CC1 [Compound 2.47]
IC50 (K-562; Leukemia): 11.2 µM
IC50 (DU-145): 32.8 µM
IC50 (HOP-62): 21.7 µM
IC50 (EKVX): 15.1 µM
IC50 (SR): 8.2 µM
IC50 (SF-295): 32 µM
IC50 (KM12): 16.2 µM
IC50 (HL-60 (TB)): 13.5 µM
IC50 (TK-10): 13.9 µM
IC50 (MCF7): 10.1 µM
IC50 (MALME-3M): 2.7 µM
IC50 (OVCAR-8): 14.2 µM
IC50 (HCT-15): 15.5 µM
IC50 (SNB-75): 19.9 µM
IC50 (MDA-MB-231/ATCC): 20 µM
IC50 (ACHN): 13.5 µM
IC50 (BT-549): 14.1 µM
IC50 (RXF 393): 15.1 µM
IC50 (UACC-62): 0.28 µM
IC50 (NCI-H460): 19.3 µM
IC50 (IGROV1; Ovarian Cancer): 16.3 µM
IC50 (SK-OV-3): 36 µM
IC50 (NCI-H226): 39.7 µM
IC50 (HCT-116): 8.1 µM
IC50 (SK-MEL-5): 16.8 µM
IC50 (SN12C): 13.2 µM
IC50 (HOP-92): 10.9 µM
IC50 (UACC-257): 11.6 µM
IC50 (MCF7/ADR-RES): 25.7 µM
IC50 (U251; CNS Cancer): 16.9 µM
IC50 (786-0): 11 µM
IC50 (OVCAR-5): 17.1 µM
IC50 (MOLT-4): 3.7 µM
IC50 (MDA-MB-435): 13.3 µM
IC50 (LOX IMVI): 11.1 µM
IC50 (HCC-2998): 19.1 µM
IC50 (CAKI-1): 12.2 µM
IC50 (SNB-19): 18.2 µM
IC50 (HS 578T): 40.7 µM
IC50 (HT29; Colon Cancer): 13.8 µM
IC50 (PC-3): 18.6 µM

O=S1(=O)CC#CCOCCOCCOCCOCCOCCOCCOCC#CC1 [Compound 2.48]
IC50 (K-562; Leukemia): 23.9 µM
IC50 (DU-145): > 100 µM
IC50 (HOP-62): 21 µM
IC50 (EKVX): 20.9 µM
IC50 (SR): 18.9 µM
IC50 (SF-295): 81.2 µM
IC50 (KM12): 20.7 µM
IC50 (HL-60 (TB)): 20.9 µM
IC50 (TK-10): 23 µM
IC50 (MCF7): 22 µM
IC50 (MALME-3M): 14.6 µM
IC50 (OVCAR-8): 33.3 µM
IC50 (HCT-15): 32.7 µM
IC50 (SNB-75): 32.6 µM
IC50 (MDA-MB-231/ATCC): 23.5 µM
IC50 (ACHN): 22.4 µM
IC50 (BT-549): 20 µM
IC50 (RXF 393): 27 µM
IC50 (UACC-62): 17.1 µM
IC50 (NCI-H460): 38 µM
IC50 (IGROV1; Ovarian Cancer): 44.6 µM
IC50 (SK-OV-3): 32.2 µM
IC50 (NCI-H226): 86.9 µM
IC50 (HCT-116): 15.3 µM
IC50 (SK-MEL-5): 18.1 µM
IC50 (SN12C): 18.8 µM
IC50 (HOP-92): 19.6 µM
IC50 (UACC-257): 21.2 µM
IC50 (MCF7/ADR-RES): > 100 µM
IC50 (U251; CNS Cancer): 18.3 µM
IC50 (786-0): 18.4 µM
IC50 (OVCAR-5): 18 µM
IC50 (MOLT-4): 19.9 µM
IC50 (MDA-MB-435): 20.4 µM
IC50 (LOX IMVI): 19.9 µM
IC50 (HCC-2998): 17.7 µM
IC50 (CAKI-1): 21.2 µM
IC50 (SNB-19): 27.9 µM
IC50 (HS 578T): 52.8 µM
IC50 (HT29; Colon Cancer): 18.7 µM
IC50 (PC-3): 43.4 µM

O=C(OCC1COCCOCCOCCOCCO1)c1ccc(CS(=O)(=O)CC#CCO)cc1 (stereo not drawn) [Compound 3.2]
IC50 (K-562; Homo sapiens, K562, Leukemia): 37 µM
IC50 (DU-145; Homo sapiens): > 100 µM
IC50 (HOP-62; Homo sapiens): > 100 µM
IC50 (EKVX; Homo sapiens): > 100 µM
IC50 (SR; Homo sapiens): > 100 µM
IC50 (SF-295; Homo sapiens): > 100 µM
IC50 (KM12; Homo sapiens): > 100 µM
IC50 (HL-60 (TB); Homo sapiens): > 100 µM
IC50 (TK-10; Homo sapiens): > 100 µM
IC50 (MCF7; Homo sapiens): > 100 µM
IC50 (MALME-3M; Homo sapiens): > 100 µM
IC50 (OVCAR-8; Homo sapiens): > 100 µM
IC50 (HCT-15; Homo sapiens): > 100 µM
IC50 (SNB-75; Homo sapiens): > 100 µM
IC50 (MDA-MB-231/ATCC; Homo sapiens): > 100 µM
IC50 (ACHN; Homo sapiens): > 100 µM
IC50 (BT-549; Homo sapiens): > 100 µM
IC50 (RXF 393; Homo sapiens): > 100 µM
IC50 (UACC-62; Homo sapiens): 82.4 µM
IC50 (NCI-H460; Homo sapiens): > 100 µM
IC50 (IGROV1; Homo sapiens, IGROV-1, Ovarian Cancer): > 100 µM
IC50 (SK-OV-3; Homo sapiens): > 100 µM
IC50 (NCI-H226; Homo sapiens): > 100 µM
IC50 (HCT-116; Homo sapiens): > 100 µM
IC50 (SK-MEL-5; Homo sapiens): > 100 µM
IC50 (SN12C; Homo sapiens): 30.3 µM
IC50 (HOP-92; Homo sapiens): 41.6 µM
IC50 (UACC-257; Homo sapiens): > 100 µM
IC50 (MCF7/ADR-RES; Homo sapiens): > 100 µM
IC50 (U251; Homo sapiens, U-251, CNS Cancer): 69 µM
IC50 (786-0; Homo sapiens): 35.3 µM
IC50 (OVCAR-5; Homo sapiens): > 100 µM
IC50 (MOLT-4; Homo sapiens): > 100 µM
IC50 (MDA-MB-435; Homo sapiens): > 100 µM
IC50 (LOX IMVI; Homo sapiens): 54.3 µM
IC50 (HCC-2998; Homo sapiens): > 100 µM
IC50 (CAKI-1; Homo sapiens): > 100 µM
IC50 (SNB-19; Homo sapiens): > 100 µM
IC50 (HS 578T; Homo sapiens): 80 µM
IC50 (HT29; Homo sapiens, HT-29, Colon Cancer): > 100 µM
IC50 (PC-3; Homo sapiens): > 100 µM
